Experimental data published in PubChem BioAssay (NCI).
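Dose response: 5 concentrations. Exposure: 48 h. Format: 96-well plates. Endpoint: linear interpolation; highest concentration if not reached. GI50 = concentration required for 50% inhibition of growth. TGI: concentration producing complete growth inhibition.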

Assays:
Experiment in all cases: DTP human tumour cell line panel, 48 h
786-0 renal = tested on: 786-0 renal
A498 renal = tested on: A498 renal
COLO 205 colon = tested on: COLO 205 colon
HT29 colon = tested on: HT29 colon
K-562 leukemia = tested on: K-562 leukemia
SK-MEL-5 melanoma = tested on: SK-MEL-5 melanoma
SNB-19 CNS = tested on: SNB-19 CNS
SW-620 colon = tested on: SW-620 colon
UACC-62 melanoma = tested on: UACC-62 melanoma
EKVX NSCLC = tested on: EKVX NSCLC

Row | Structure (SMILES) | GI50 (786-0 renal) [µM] | TGI (786-0 renal) [µM] | GI50 (A498 renal) [µM] | TGI (A498 renal) [µM] | GI50 (COLO 205 colon) [µM] | TGI (COLO 205 colon) [µM] | GI50 (HT29 colon) [µM] | TGI (HT29 colon) [µM] | GI50 (K-562 leukemia) [µM] | TGI (K-562 leukemia) [µM] | GI50 (SK-MEL-5 melanoma) [µM] | TGI (SK-MEL-5 melanoma) [µM] | GI50 (SNB-19 CNS) [µM] | TGI (SNB-19 CNS) [µM] | GI50 (SW-620 colon) [µM] | TGI (SW-620 colon) [µM] | GI50 (UACC-62 melanoma) [µM] | TGI (UACC-62 melanoma) [µM] | TGI (EKVX NSCLC) [µM] | GI50 (EKVX NSCLC) [µM]
1 | CCc1ccc2cc3c(ccc4ccccc43)c3c2c1CC3 | > 100 | > 100 | > 100 | > 100 | > 100 | > 100 | > 100 | > 100 | > 100 | > 100 | > 100 | > 100 | > 100 | > 100 | > 100 | > 100 | > 100 | > 100 |  | 
2 | O=C(/C=C/c1c[nH]c2ccccc12)c1ccccc1O |  | 25.5 |  | 28.5 |  |  |  | 33.9 |  | > 100 |  |  |  | 36.7 |  | 59.7 |  | 21 | 33 | 
3 | FC(F)(F)c1ccc(-c2cnc(-c3nn[nH]n3)nc2NC2CCCCCC2)cc1 | > 10 | > 10 | > 10 | > 10 | > 10 | > 10 | > 10 | > 10 | > 10 | > 10 | > 10 | > 10 | > 10 | > 10 | > 10 | > 10 | > 10 | > 10 |  | 
4 | Nc1ncnc2c1ncn2C1SC(CO)C(O)C1O (stereo not given) | 16.5 | 37.3 |  |  | 33.3 | > 100 | 10.7 | 42.4 | 16.9 | > 100 | 74.4 | > 100 | 26 | 82.8 | 17.5 | 77.2 | > 100 | > 100 |  | 
5 | COc1cc(-c2nn(-c3cccc(NC(=O)NCCNC(=O)c4ccccc4)c3)cc2-c2ccncc2)ccc1Cl | 1.94 | 5.37 | 4.72 | > 100 |  |  | 0.965 | 23.6 |  |  | 1.55 | 4.06 | 4.83 | > 100 | 0.824 | > 100 | 3.08 | 31.2 | > 100 | 3.76
6 | CC(=O)Nc1ccc(S(=O)(=O)N2C(=O)CCC2C(=O)Nc2ccccc2)cc1 (stereo not given) | 1.42 | 13.3 | 0.303 | 8.77 | 0.872 | 4.38 | 2.06 | 19.4 | 0.258 | 10.2 | 0.367 | 5.31 | 1.74 | 19.2 | 0.405 | 16.7 | 0.0523 | 10.3 |  | 
7 | O=C(c1ccccc1)N1CCc2c([nH]c3ccccc23)C1 |  | > 100 |  |  |  | 36.7 |  | > 100 |  | > 100 |  | 47.6 |  | > 100 |  | > 100 |  | > 100 | > 100 | 
8 | N/C(=N\O)c1cn(C2OC(CO)C(O)C2O)c2ncnc(N)c12 (stereo not given) | 0.374 | > 100 | 0.14 | 0.555 | 0.131 | 0.601 | 0.226 | 18.6 | 0.281 | > 100 | 0.183 | 0.356 | 0.301 | > 100 | 0.0883 |  | 0.141 | 0.366 |  | 
9 | O=C(N=Nc1c(O)[nH]c2c(Cl)cc(Cl)cc12)C(=O)Nc1cccc(C(F)(F)F)c1 |  | > 100 |  | > 100 |  | > 100 |  | > 100 |  |  |  | > 100 |  | > 100 |  | > 100 |  | > 100 | > 100 | 
10 | c1c[nH]c(CN2CCN(Cc3ncc[nH]3)CC2)n1 |  | > 100 |  | > 100 |  | > 100 |  | > 100 |  |  |  | > 100 |  | > 100 |  | > 100 |  | > 100 | > 100 | 
11 | Cc1nn(-c2ccccc2)c2c1[C@@H](C)[C@H]1CC3(CC4(C)C[C@@H]3C1(C)c1c(C)nn(-c3ccccc3)c1N4C)N2C (stereo not given in full) | > 100 | > 100 | > 100 | > 100 |  |  |  |  |  |  |  |  | > 100 | > 100 |  |  |  |  |  | 
12 | Fc1cnccc1-c1nc2ccc3[nH]ncc3c2c2c1CCCC2 | 1.67 | 5.23 | 0.7 | 2.96 |  |  | 2.49 | > 100 | 2.63 | > 100 | 2.35 | > 100 | 2.89 | > 100 |  |  | 1.44 | 5.75 | 13 | 0.442
13 | O=C(CC1(O)C(=O)Nc2ccc(Br)cc21)c1cccc([N+](=O)[O-])c1 (stereo not given) |  | > 100 |  |  |  | > 100 |  | > 100 |  | > 100 |  |  |  | > 100 |  | > 100 |  |  | > 100 | 
14 | CC[C@H]1CNC(=O)CC1CC(=O)OC (stereo not given in full) |  | > 100 |  | > 100 |  |  |  | > 100 |  |  |  | > 100 |  | > 100 |  | > 100 |  | > 100 | > 100 | 
